pIC50: −log10 of the molar value. ≈ marks a conversion by molar mass, not a printed value. Where only a bound is given, the exact number is not on record here.

Experimental findings from patent US8901119B2, “Peptide deformylase inhibitors” (GlaxoSmithKline Intellectual Property (No. 2) Limited, priority 2011, dated 2014) are described below.

In assay [1] the test system is Streptococcus pneumoniae 1629. Put plainly: Antimicrobial activity assay (broth microdilution MIC). It counts as cell-based. Particulars: read-out: MIC, S. pneumoniae 1629. On the procedure:
(§1) Whole-cell antimicrobial activity was determined by broth microdilution using the Clinical and Laboratory Standards Institute (CLSI, formerly NCCLS) recommended methodology (NCCLS Document M7-A7, “Methods for Dilution Antimicrobial Susceptibility Tests for Bacteria that Grow Aerobically; Approved Standard—Seventh Edition”, 2006). Compounds were tested in serial two-fold dilutions ranging from 64 to 0.06 μg/mL against a panel of at least 11 strains. This panel consisted of the following laboratory strains: Staphylococcus aureus Oxford, Staphylococcus aureus WCUH29, Enterococcus faecalis I, Enterococcus faecalis 7 or Enterococcus faecalis X7501, Haemophilus influenzae Q1, Haemophilus influenzae NEMC1 or Haemophilus influenzae H128, Moraxella catarrhalis 1502, Streptococcus pneumoniae 1629, Streptococcus pneumoniae N1387, Streptococcus pneumoniae Ery2 and Escherichia coli 7623 or Escherichia coli 3. All compounds were also tested against Haemophilus influenzae H128 or Escherichia coli 7623 efflux minus mutants (strains in which the AcrA efflux pump had been deleted) to ascertain the extent in which the molecules were effluxed out of the bacteria. In addition, the antibacterial activity of some compounds against Streptococcus pyogenes 1307006P and Streptococcus pyogenes 1308007P was also analyzed. The minimum inhibitory concentration (MIC) was determined as the lowest concentration of compound that inhibited visible growth. A mirror reader was used to assist in determining the MIC endpoint.

In the next assay the test system is Enterococcus faecalis I. The description is as above. It counts as cell-based. Particulars: read-out: MIC, E. faecalis I. Here is the method: as §1
For assay [2], the system named is Haemophilus influenzae Q1. The description is as above. It counts as cell-based. Particulars: Q1, broth microdilution, read-out: MIC, H. influenzae Q1. Here is the method:
as §1
For orientation: Dilution methods test growth across graded concentrations, often in twofold steps.

Assay [3] deals with Staphylococcus aureus WCUH29. Described as above. It counts as cell-based. Particulars: read-out: MIC, S. aureus WCUH29. On the procedure:
as §1

Assay [4] deals with Moraxella catarrhalis 1502. Described as above. It counts as cell-based. Here is the method: as §1
The subject of assay [5] is Enterococcus faecalis X7501. The description is as above. Particulars: read-out: MIC, E. faecalis X7501. It counts as cell-based. On the procedure:
as §1

The subject of another assay is Escherichia coli 3. Described as above. It counts as cell-based. Particulars: read-out: MIC, E. coli 3. On the procedure: as §1
In assay [6] the test system is Haemophilus influenzae H128. Described as above. It counts as cell-based. Particulars: read-out: MIC, H. influenzae H128. On the procedure: as §1
Assay [7] deals with Staphylococcus aureus Oxford. Described as above. It counts as cell-based. Particulars: read-out: MIC, S. aureus Oxford. On the procedure:
as §1

The subject of assay [8] is Streptococcus pneumoniae N1387. Described as above. It counts as cell-based. Particulars: read-out: MIC, S. pneumoniae N1387. On the procedure: as §1
In assay [9] the test system is Streptococcus pneumoniae Ery2. Described as above. It counts as cell-based. Particulars: ERY2, read-out: MIC, S. pneumoniae ERY2. Here is the method: as §1
The subject of assay [10] is Streptococcus pyogenes 1308007P. The description is as above. It counts as cell-based. Particulars: read-out: MIC, S. pyogenes 1308007P. Here is the method: as §1
Assay [11] deals with T1, Staphylococcus aureus PDF (SaPDF) (Staphylococcus aureus, UniProt P68826).
T1 sequence (P68826 1-183): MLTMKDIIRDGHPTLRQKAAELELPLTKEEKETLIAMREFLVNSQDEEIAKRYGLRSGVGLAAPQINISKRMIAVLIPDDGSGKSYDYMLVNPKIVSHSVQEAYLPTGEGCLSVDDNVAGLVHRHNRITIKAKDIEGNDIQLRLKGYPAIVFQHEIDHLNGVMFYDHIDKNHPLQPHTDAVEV
The assay is described as follows: PDF IC50 Assay 1 (FDH-coupled, absorbance 340 nm). It counts as biochemical. Particulars: Assay 1 conditions; read-out: IC50, S. aureus PDF activity. On the procedure: (§2) Enzymatic activity of PDF was measured using a formate dehydrogenase (FDH)-coupled assay [Lazennec and Meinnel (1997) Anal. Biochem. 244, 180-182]. Once formate is released from methionine by PDF, it is oxidized by FDH thereby reducing one molecule of NAD to NADH and resulting in an increase in absorbance at 340 nm. Reactions were initiated by adding PDF to microtiter plates containing all other reaction components and were continuously monitored for 20 min at 25° C. The final reaction composition for the Staphylococcus aureus PDF (SaPDF) assay was 50 mM potassium phosphate, pH 7.6, 5 units/mL FDH, 7 mM NAD, 1% DMSO, 0.01% CHAPS, 1 nM SaPDF, and 3 mM formyl-Met-Ala-Ser in 40 μL total volume. Serial dilutions of inhibitors were performed in DMSO. Reagents and assay format were identical for Haemophilus influenzae PDF except that formyl-Met-Ala-Ser was 6 mM final. In the Streptococcus pneumoniae PDF assay, reaction conditions were similar but contained […] enzyme, 4 mM NAD and 4 mM formyl-Met-Ala-Ser. The varying formyl-Met-Ala-Ser concentrations reflect KM values for substrate using the different PDF isozymes. IC50s were determined by fitting to the equation: % Inhibition=100/1+(IC50/[l])^s, where s is a slope factor, l is the inhibitor concentration and the IC50 is the concentration of compound that causes 50% inhibition.

The target in assay [12] is T2, Streptococcus pneumoniae PDF (Streptococcus pneumoniae serotype 4, UniProt Q9F2F0).
T2 sequence (Q9F2F0 1-203): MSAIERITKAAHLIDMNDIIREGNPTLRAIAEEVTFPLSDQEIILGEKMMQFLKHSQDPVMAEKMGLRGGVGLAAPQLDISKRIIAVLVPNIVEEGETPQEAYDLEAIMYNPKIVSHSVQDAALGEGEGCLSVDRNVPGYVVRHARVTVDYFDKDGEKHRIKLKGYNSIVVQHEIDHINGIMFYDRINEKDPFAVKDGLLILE
The assay is described as follows: PDF IC50 Assay 1 (FDH-coupled, absorbance 340 nm). It counts as biochemical. Particulars: Assay 1 conditions; read-out: IC50, S. pneumoniae PDF activity. On the procedure: as §2

In assay [13] the target is Haemophilus influenzae PDF (Haemophilus influenzae, UniProt P44786). Put plainly: PDF IC50 Assay 1 (FDH-coupled, absorbance 340 nm). It counts as biochemical. On the procedure:
as §2

Haemophilus influenzae PDF, sequence (P44786 whole entry): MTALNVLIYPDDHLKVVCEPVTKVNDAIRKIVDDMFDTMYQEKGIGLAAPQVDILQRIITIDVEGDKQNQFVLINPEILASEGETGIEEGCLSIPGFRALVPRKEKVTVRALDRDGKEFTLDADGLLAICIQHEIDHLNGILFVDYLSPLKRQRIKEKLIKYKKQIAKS

For `O=CN(O)C[C@@H](CC1CCCC1)C(=O)N1NCC[C@H]1C(=O)Nc1ccncn1` [Example 59, (3S)-2-((2R)-3-Cyclopentyl-2-{[formyl(hydroxy)amino]methyl}propanoyl)-N-4-pyrimidinyl-3-pyrazolidinecarboxamide], the MIC in assay [1] was 1 µg/mL (≈ 2.56 µM); with Enterococcus faecalis I, 2 µg/mL (≈ 5.12 µM); in assay [2], 0.25 µg/mL (≈ 0.64 µM); in [3], at most 0.06 µg/mL; in assay [4], at most 0.06 µg/mL; in [5] it was 1 µg/mL (≈ 2.56 µM). In addition, the MIC in the assay on Escherichia coli 3 came out at 16 µg/mL (≈ 41 µM); in assay [6], 0.5 µg/mL (≈ 1.28 µM); in assay [7], 0.5 µg/mL (≈ 1.28 µM); in assay [8], 0.5 µg/mL (≈ 1.28 µM); in assay [9], 0.25 µg/mL (≈ 0.64 µM); in [10] it was 0.25 µg/mL (≈ 0.64 µM). The pIC50 in assay [11], in [12] and in assay [13] was at least 6.00 throughout.
